Patent US6004992A, “Aminocarboxylic acid fluorobutenyl esters” (Bayer Aktiengesellschaft, priority 1995, dated 1999)

Columns and labels:
log p (pH 2) = type: physicochemical
[1] = system: Boophilus Microplus Resistent/SP-resistent Parkhurst Strain; experiment: Test with Boophilus Microplus Resistent/SP-resistent Parkhurst Strain (inhibition of oviposition); type: in vivo; settings: 20 μg/animal; 1 μl injected into the abdomen, adult females; 100% = no tick has deposited eggs
Description: Test with Boophilus Microplus Resistent/SP-resistent Parkhurst Strain
Test animals: Adult females which have sucked themselves full
Solvent: Dimethyl sulphoxide
20 mg of active compound are dissolved in 1 ml of dimethyl sulphoxide, and lower concentrations are prepared by diluting in the same solvent.
The test is carried out in 5 replications. 1 μl of the solutions is injected into the abdomen, and the animals are transferred into dishes and kept in an air-conditioned room. The activity is determined via the inhibition of oviposition. 100% means that no tick has deposited eggs.

Meloidogyne incognita = experiment: Critical Concentration Test/nematodes; type: in vivo; settings: 20 ppm (=mg/l soil), four weeks, 25° C., 100% = infestation avoided completely
Description: Critical Concentration Test/nematodes
Test nematode: Meloidogyne incognita
Solvent: 4 parts by weight of acetone
Emulsifier: 1 part by weight of alkylaryl polyglycol ether
To produce a suitable preparation of active compound, 1 part by weight of active compound is mixed with the stated amount of solvent, the stated amount of emulsifier is added and the concentrate is diluted with water to the desired concentration.
The active compound preparation is intimately mixed with soil which is heavily infested with the test nematodes. The active compound concentration in the preparation is immaterial, only the amount of active compound per unit volume of soil, which is given in ppm (=mg/l), matters. The treated soil is transferred into pots, lettuce is sown in, and the pots are kept at a greenhouse temperature of 25° C.
After four weeks, the lettuce roots are checked for infestation with nematodes (root galls) and the efficacy of the active compound in % is determined. The efficacy is 100% when infestation is avoided completely and 0% when the infestation level is just as high as in the control plants in untreated, but equally infested, soil.

Row | logD (log p (pH 2)) | SMILES | further results
1 | 3.31 | O=C(OCCC(F)=C(F)F)C1CCCN1C(=O)OCc1ccccc1 (stereo not drawn) [Ic-1] | 
2 | 1.32 | O=CNC1(C(=O)OCCC(F)=C(F)F)CC1 [Ib-14] | 

Continued, compound first:

Row | SMILES | logD (log p (pH 2)) | further results
3 | C[C@H](NC(=O)c1c(F)cccc1F)C(=O)OCCC(F)=C(F)F [Example Ib-2, 3,4,4-trifluorobut-3-enyl N-(2,6-difluorobenzoyl)-alaninate] | 2.42 | 
4 | O=C(CNC(=O)c1ccccc1)OCCC(F)=C(F)F [Ib-6] | 2.09 | 
5 | CC(=O)NC(=Cc1cccs1)C(=O)OCCC(F)=C(F)F [Example Ia-4] |  | activity (inhibition of oviposition) [1]: 100%
6 | CC(=O)NC(=Cc1ccccc1)C(=O)OCCC(F)=C(F)F [Example Ia-2] |  | efficacy of the active compound in % (nematode infestation of lettuce roots, root galls) (Meloidogyne incognita): 100%
